The record followed here is ChEMBL document CHEMBL5465560, “Selectivity Literature for EUbOPEN Chemogenomic Library” (2024).

Assay [1] addresses T1, Mitogen-activated protein kinase 13 (Homo sapiens) (UniProt O15264).
T1 sequence (whole entry): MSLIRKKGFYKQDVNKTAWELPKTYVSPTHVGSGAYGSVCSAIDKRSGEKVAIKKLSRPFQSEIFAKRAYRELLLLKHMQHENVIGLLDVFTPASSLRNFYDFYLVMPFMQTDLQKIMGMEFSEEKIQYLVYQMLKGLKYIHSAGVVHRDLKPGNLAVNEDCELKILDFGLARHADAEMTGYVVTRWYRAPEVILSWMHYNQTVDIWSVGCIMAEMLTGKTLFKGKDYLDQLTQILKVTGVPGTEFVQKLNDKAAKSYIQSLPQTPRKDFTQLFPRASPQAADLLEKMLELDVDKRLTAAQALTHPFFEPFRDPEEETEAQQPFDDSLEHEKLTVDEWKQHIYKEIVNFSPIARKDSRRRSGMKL
As to the kind of experiment: Selectivity interaction (Kinase panel (Z-LYTE Assay)) EUB0001632a MAPK13. To be noted: at 10 µM.

Assay [2] deals with T2, Ephrin type-B receptor 2 (Homo sapiens) (UniProt P29323).
T2 sequence (whole entry): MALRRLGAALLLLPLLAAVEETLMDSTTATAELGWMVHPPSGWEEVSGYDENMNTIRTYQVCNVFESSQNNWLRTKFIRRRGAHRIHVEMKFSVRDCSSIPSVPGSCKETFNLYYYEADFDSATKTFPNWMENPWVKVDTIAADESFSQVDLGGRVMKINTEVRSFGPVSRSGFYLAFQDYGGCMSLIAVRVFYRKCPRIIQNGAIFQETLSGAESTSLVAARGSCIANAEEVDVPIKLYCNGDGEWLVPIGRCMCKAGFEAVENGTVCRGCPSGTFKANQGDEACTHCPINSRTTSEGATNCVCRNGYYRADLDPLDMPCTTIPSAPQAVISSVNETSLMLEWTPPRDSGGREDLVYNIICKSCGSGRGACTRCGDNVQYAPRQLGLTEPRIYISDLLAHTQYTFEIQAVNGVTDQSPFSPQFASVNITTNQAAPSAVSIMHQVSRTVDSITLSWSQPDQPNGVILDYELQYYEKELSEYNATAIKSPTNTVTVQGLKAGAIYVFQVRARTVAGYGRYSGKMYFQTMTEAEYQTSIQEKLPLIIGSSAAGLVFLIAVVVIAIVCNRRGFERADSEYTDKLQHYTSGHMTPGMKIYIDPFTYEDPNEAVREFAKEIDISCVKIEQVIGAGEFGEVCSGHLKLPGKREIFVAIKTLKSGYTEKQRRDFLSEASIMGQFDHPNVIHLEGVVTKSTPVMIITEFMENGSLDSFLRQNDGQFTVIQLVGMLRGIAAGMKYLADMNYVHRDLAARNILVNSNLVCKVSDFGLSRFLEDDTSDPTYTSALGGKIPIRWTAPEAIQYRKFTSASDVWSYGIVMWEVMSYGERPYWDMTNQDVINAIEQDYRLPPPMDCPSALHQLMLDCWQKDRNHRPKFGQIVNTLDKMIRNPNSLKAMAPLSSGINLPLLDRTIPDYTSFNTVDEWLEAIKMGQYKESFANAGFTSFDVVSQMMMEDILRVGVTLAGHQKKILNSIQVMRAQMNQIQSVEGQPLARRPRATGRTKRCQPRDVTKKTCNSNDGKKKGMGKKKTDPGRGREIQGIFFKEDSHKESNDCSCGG
To be noted: at 10 µM.

In assay [3] the target is T3, Dual specificity mitogen-activated protein kinase kinase 7 (Homo sapiens) (UniProt O14733).
T3 sequence (whole entry): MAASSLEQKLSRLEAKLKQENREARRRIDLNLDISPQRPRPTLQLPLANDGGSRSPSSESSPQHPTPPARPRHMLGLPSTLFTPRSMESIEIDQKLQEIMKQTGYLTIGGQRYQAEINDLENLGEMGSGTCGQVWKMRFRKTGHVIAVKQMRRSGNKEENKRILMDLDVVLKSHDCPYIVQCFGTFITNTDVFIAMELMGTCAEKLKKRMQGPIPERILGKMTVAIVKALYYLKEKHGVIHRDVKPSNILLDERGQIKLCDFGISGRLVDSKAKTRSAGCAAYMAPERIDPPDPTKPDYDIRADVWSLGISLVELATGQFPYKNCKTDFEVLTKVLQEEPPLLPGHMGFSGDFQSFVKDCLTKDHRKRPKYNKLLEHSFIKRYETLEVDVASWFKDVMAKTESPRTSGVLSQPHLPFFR
As to the kind of experiment: Selectivity interaction (KinomeScan (DiscoverX)) EUB0000666a MAP2K7. To be noted: at 10 µM.

The target of assay [4] is Tyrosine-protein kinase BTK (Homo sapiens, UniProt Q06187). As to the kind of experiment: Selectivity interaction (KinomeScan (DiscoverX)) EUB0000655a BTK. To be noted: at 10 µM.
For assay [5], the target named is Serine/threonine-protein kinase PAK 1 (Homo sapiens) (UniProt Q13153). As to the kind of experiment: Selectivity interaction (KinomeScan (DiscoverX)) EUB0001619a PAK1. To be noted: at 1 µM.
Assay [6] deals with Sodium-dependent dopamine transporter (Homo sapiens, UniProt Q01959). As to the kind of experiment: Selectivity interaction (Safety Panel 44tm (Eurofins)) EUB0000162b SLC6A3. To be noted: at 10 µM.
Sequence of Sodium-dependent dopamine transporter (Q01959 whole entry): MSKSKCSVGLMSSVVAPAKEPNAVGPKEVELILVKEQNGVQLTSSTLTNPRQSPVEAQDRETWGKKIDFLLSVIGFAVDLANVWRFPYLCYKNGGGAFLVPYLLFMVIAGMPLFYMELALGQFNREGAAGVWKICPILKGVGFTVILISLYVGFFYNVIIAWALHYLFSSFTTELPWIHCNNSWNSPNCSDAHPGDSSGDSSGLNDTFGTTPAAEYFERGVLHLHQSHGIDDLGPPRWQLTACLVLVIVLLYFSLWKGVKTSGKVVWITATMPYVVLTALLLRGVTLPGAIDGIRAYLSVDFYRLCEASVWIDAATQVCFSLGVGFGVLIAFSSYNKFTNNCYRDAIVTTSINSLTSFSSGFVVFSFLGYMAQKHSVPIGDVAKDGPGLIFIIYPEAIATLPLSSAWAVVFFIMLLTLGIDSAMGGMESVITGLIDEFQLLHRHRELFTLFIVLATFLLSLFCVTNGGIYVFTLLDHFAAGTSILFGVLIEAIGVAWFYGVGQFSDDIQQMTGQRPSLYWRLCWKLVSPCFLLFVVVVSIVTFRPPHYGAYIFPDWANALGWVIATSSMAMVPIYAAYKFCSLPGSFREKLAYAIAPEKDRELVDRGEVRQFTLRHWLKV
Assay [7] concerns the target Fibroblast growth factor receptor 4 (Homo sapiens, UniProt P22455). As to the kind of experiment: Selectivity interaction (KinomeScan (DiscoverX)) EUB0000092b FGFR4. To be noted: at 10 µM.
Assay [8] concerns Phosphatidylinositol 4,5-bisphosphate 3-kinase catalytic subunit alpha isoform (Homo sapiens), P42336 [H1047Y]. As to the kind of experiment: (§1) Selectivity interaction (KinomeScan (DiscoverX)) EUB0000618a PIK3CA. To be noted: at 10 µM.
The subject of assay [9] is Phosphatidylinositol 4,5-bisphosphate 3-kinase catalytic subunit alpha isoform (Homo sapiens), P42336 [H1047L]. Described as §1. To be noted: at 10 µM.
Assay [10] relates to Phosphatidylinositol 4,5-bisphosphate 3-kinase catalytic subunit alpha isoform (Homo sapiens), P42336 [E545A]. The description is as §1. To be noted: at 10 µM.
The subject of assay [11] is Phosphatidylinositol 4,5-bisphosphate 3-kinase catalytic subunit alpha isoform (Homo sapiens), P42336 [M1043I]. The description is as §1. To be noted: at 10 µM.
Assay [12] concerns Phosphatidylinositol 4,5-bisphosphate 3-kinase catalytic subunit alpha isoform (Homo sapiens), P42336 [E545K]. The assay is described as §1. To be noted: at 10 µM.
The test system of assay [13] is Phosphatidylinositol 4,5-bisphosphate 3-kinase catalytic subunit alpha isoform (Homo sapiens), P42336 [Q546K]. The description is as §1. To be noted: at 10 µM.
Sequence of Phosphatidylinositol 4,5-bisphosphate 3-kinase catalytic subunit alpha isoform (Homo sapiens), P42336 [Q546K] (P42336 whole entry Q546K, canonical isoform): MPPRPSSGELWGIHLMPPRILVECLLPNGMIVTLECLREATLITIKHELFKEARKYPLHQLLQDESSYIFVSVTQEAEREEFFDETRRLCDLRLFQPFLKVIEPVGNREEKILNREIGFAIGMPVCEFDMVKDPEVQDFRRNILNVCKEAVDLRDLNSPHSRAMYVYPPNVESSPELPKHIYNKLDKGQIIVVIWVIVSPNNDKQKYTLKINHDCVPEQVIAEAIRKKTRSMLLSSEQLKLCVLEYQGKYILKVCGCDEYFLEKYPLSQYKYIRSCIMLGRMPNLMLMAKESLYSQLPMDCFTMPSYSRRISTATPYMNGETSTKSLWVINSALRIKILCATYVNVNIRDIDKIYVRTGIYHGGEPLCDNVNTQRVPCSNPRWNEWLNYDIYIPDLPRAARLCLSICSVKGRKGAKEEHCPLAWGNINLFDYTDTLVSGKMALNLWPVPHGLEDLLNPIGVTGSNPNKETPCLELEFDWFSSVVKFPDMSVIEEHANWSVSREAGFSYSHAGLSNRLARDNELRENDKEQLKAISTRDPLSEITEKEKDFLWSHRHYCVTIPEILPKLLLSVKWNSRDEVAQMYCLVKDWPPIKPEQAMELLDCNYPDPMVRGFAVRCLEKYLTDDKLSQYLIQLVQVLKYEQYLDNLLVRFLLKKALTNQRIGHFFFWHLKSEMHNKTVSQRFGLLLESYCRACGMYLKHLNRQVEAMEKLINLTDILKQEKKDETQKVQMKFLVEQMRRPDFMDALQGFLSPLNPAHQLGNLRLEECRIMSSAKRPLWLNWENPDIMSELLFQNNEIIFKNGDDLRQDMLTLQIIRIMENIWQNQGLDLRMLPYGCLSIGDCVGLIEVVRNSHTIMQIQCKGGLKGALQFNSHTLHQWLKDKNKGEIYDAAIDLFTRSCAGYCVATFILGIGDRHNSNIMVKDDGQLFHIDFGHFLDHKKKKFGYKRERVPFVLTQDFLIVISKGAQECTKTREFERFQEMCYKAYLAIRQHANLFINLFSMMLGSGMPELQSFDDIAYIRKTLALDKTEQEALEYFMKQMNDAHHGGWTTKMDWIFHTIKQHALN
Assay [14] has as its target Phosphatidylinositol 4,5-bisphosphate 3-kinase catalytic subunit alpha isoform (Homo sapiens) (UniProt P42336). The assay is described as §1. To be noted: at 10 µM.
Assay [15] has as its system Phosphatidylinositol 4,5-bisphosphate 3-kinase catalytic subunit alpha isoform (Homo sapiens), P42336 [E542K]. The description is as §1. To be noted: at 10 µM.
The test system of assay [16] is Phosphatidylinositol 4,5-bisphosphate 3-kinase catalytic subunit alpha isoform (Homo sapiens), P42336 [C420R]. The assay is described as §1. To be noted: at 10 µM.
For assay [17], the target named is Tyrosine-protein kinase Srms (Homo sapiens) (UniProt Q9H3Y6). As to the kind of experiment: Selectivity interaction (KinomeScan (DiscoverX)) EUB0000618a SRMS. To be noted: at 10 µM.
Assay [18] addresses Fibroblast growth factor receptor 3 (Homo sapiens, UniProt P22607). As to the kind of experiment: (§2) Selectivity interaction (KinomeScan (DiscoverX)) EUB0000618a FGFR3. To be noted: at 10 µM.
In assay [19] the test system is Fibroblast growth factor receptor 3 (Homo sapiens), P22607 [G697C]. Described as §2. To be noted: at 10 µM.
For assay [20], the target named is Ephrin type-A receptor 2 (Homo sapiens) (UniProt P29317). As to the kind of experiment: Selectivity interaction (KinomeScan (DiscoverX)) EUB0000595a EPHA2. To be noted: at 10 µM.

Sequence of Phosphatidylinositol 4,5-bisphosphate 3-kinase catalytic subunit alpha isoform (Homo sapiens), P42336 [H1047L] (P42336 whole entry H1047L, canonical isoform): as the sequence (P42336 whole entry Q546K, canonical isoform) above, with K546Q, H1047L counted along it
Sequence of Phosphatidylinositol 4,5-bisphosphate 3-kinase catalytic subunit alpha isoform (Homo sapiens), P42336 [M1043I] (P42336 whole entry M1043I, canonical isoform): as the sequence (P42336 whole entry Q546K, canonical isoform) above, with K546Q, M1043I counted along it
Sequence of Phosphatidylinositol 4,5-bisphosphate 3-kinase catalytic subunit alpha isoform (Homo sapiens), P42336 [E542K] (P42336 whole entry E542K, canonical isoform): as the sequence (P42336 whole entry Q546K, canonical isoform) above, with E542K, K546Q counted along it

In the case of `Cn1cc(-n2cnc3c(NCc4nc5cc(Cl)c(Cl)cc5[nH]4)nc(N4CCOCC4)nc32)cn1`, the % of control in assay [1] was 3.12%.

In assay [2], `Cc1cc([C@@H](C)Nc2ccccc2C(=O)O)c2nc(N3CCOCC3)cc(=O)n2c1` [AZD-6482] displayed a % of control of 100%.

In assay [3], `O=C(NOC[C@H](O)CO)c1ccc(F)c(F)c1Nc1ccc(I)cc1F` displayed a % of control of 100%.

In the case of `CN(C)CCOc1ccc(-c2nc(-c3ccncc3)c(-c3ccc4c(c3)CC/C4=N\O)[nH]2)cc1`, the % of control in assay [4] is 92%.

The compound `N#Cc1cccc(-c2c[nH]c3ncnc(N4CCOCC4)c23)c1` came in with a % of control in assay [5] of 100%.

In the case of `CN(C)C(=O)Cn1cc(-c2ccc(-c3cncc4ccccc34)cc2)cn1`, the % of control in assay [6] was determined as 87%.

Regarding `CCC(=O)N1CCN(c2ccc(-n3c(=O)ccc4cnc5ccc(-c6cnc7ccccc7c6)cc5c43)cc2C(F)(F)F)CC1`, the % of control in [7] came to 21%.

Regarding `O[C@H]1CC[C@H](Nc2ncc3nc(Nc4c(F)cc(F)cc4F)n([C@H]4CCOC4)c3n2)CC1`, the % of control in [8], in assay [9], in [10], in assay [11], in assay [12] and in assay [13] was 100% in each case. Besides, the % of control in assay [14] amounted to 100%; in [15] it was 100%; in assay [16] it was 100%; in [17], 89%; in assay [18], 88%; in assay [19], 82%.

Regarding `COCC(=O)NC/C=C/c1ccc2ncnc(Nc3ccc(Oc4ccc(C)nc4)c(C)c3)c2c1` [CP-724714], in assay [20], the % of control came out at 100%.
